From paper PMC5756575, “In Vitro Biotransformation, Safety, and Chemopreventive Action of Novel 8-Methoxy-Purine-2,6-Dione Derivatives” (Applied Biochemistry and Biotechnology, 2017)
“Also recorded” adds a separate entry of the source. Read-outs that look alike come from different tables or passages of the source.

How the values were obtained:
rat liver microsomes = test: Microsomal stability assay; assay type: in vitro ADME; conditions: rat liver microsomes, 1 h of incubation
Method: Compounds 1 and 3 were studied in a biotransformation assay using rat liver microsomes following procedures described previously. The reagents used in this assay were levallorphan (internal standard) and NADPH-regenerating system, which contained phosphate buffer (pH 7.4), NADP^+, glucose-6-phosphate, and glucose-6-phosphate dehydrogenase. The final protein concentration in the assay was 0.4 mg/mL. Compounds 1 and 3 were tested at a final concentration of 20 μM.
The amount of a parental compound remaining in a solution after biotransformation was monitored using LC-MS/MS as described previously in “Cunninghamella Biotransformation Assay.” Graphs representing ln of percentage of parent compound remaining versus incubation time were drawn to calculate in vitro half-time (t1/2) from the slope of linear regression. To obtain intrinsic clearance (Clint) of a tested compound in rat liver microsomal assay, t1/2 previously calculated was substituted at the equation Clint = [(Vmic/Pmic) × 0.693/t1/2], being Vmic and Pmic the volume of incubation in microliters and the amount of incubated protein in milligrams, respectively.
Agilent 1100 HPLC system (Agilent Technologies, Waldbronn, Germany) equipped with a Xbridge™ C18 analytical column (2.1 × 30 mm, […]; Waters, Dublin, Ireland) was used in the chromatographic separation of LC-MS/MS analysis. An elution gradient of acetonitrile and water, with 0.1% of formic acid, was used as a mobile phase. MS spectra were taken at Applied Biosystems MDS Sciex API 200 triple quadrupole mass analyzer (Concord, Ontario, Canada) with an electrospray ionization (ESI) interface between HPLC and MS.

Vibrio harveyi BB7M [1] = test: Vibrio harveyi antimutagenicity assay against NQNO, BB7M; assay type: cell-based; conditions: compound 40 ng/mL + NQNO 40 ng/mL; for Number of revertants per plate, Mean ± SD: antimutagenicity, NQNO line = NQNO as a single compound
From the text: (§1) Four Vibrio harveyi strains were used in this study: a wild-type BB7 (naturally found in the Baltic Sea) and three genetically modified strains, namely BB7M (obtained by the introduction of pAB1273 plasmid containing the genes mucA and mucB to enhance the error-prone DNA repair), BB7X (hypersensitive to UV radiation after genetic modification with Tn5TpMCS), and BB7XM (containing the two abovementioned modifications). These strains were kindly provided by Prof. G. Węgrzyn (Department of Molecular Biology, University of Gdańsk, Poland).
(§2) It causes point mutations at the genome as it induces G:C → A:T transitions in Vibrio harveyi strains and in other bacteria such as Escherichia coli and S. typhimurium. […] Next, its working solution was prepared in sterile water, being 40 ng/mL its final concentration.
(§3) Procedure followed in the V. harveyi antimutagenicity assay was similar to the mutagenicity method described before. […] The results were expressed as the inhibition percentage of mutagenic effect, which was calculated with the formula: 100 − [(R 1/R 2) × 100], where R 1 is the number of revertants per plate in the presence of both mutagen and tested substance, and R 2 is the number of revertants per plate in the presence of mutagen. […] S. typhimurium antimutagenicity assay was based on similar assumptions as the V. harveyi antimutagenicity test. In this case, the chemopreventive activity was determined at two concentrations of a tested compounds and a standard mutagen, i.e., 40 and 500 ng/mL.

Vibrio harveyi BB7XM [2] = test: Vibrio harveyi mutagenicity assay, BB7XM; assay type: cell-based; conditions: 40 ng/mL; for MI (mutagenicity index): mutagenic if MI above 2.0; for Number of revertants per plate, Mean ± SD: mutagenicity
Method: (§4) From them, 0.2 mM working solutions were prepared by dilution with water. […] Working solutions were prepared by 1:100 dilution of stock solution in water, and final compound concentration assayed was 40 ng/mL.
as §1, §2
(§5) To perform the V. harveyi mutagenicity test, 10 μL of a working solution of the tested compound (100 μg/mL) were added to V. harveyi bacterial culture (OD600 = 0.1) in NaCl-containing BOSS liquid medium, being 40 ng/mL the final concentration of the tested compound. […] Then, an inoculum containing 5 × 10^6 cells was added to solid BOSS agar plate supplemented with neomycin sulfate at a final concentration of 100 μg/mL. Samples were left incubating 48 h at 30 °C, and revertant colonies were counted manually.

Vibrio harveyi BB7X [3] = test: Vibrio harveyi antimutagenicity assay against NQNO, BB7X; assay type: cell-based; conditions: compound 40 ng/mL + NQNO 40 ng/mL; for Number of revertants per plate, Mean ± SD: antimutagenicity, NQNO line = NQNO as a single compound
From the text: as §1, §2, §3

Vibrio harveyi BB7 [4] = test: Vibrio harveyi antimutagenicity assay against NQNO, BB7; assay type: cell-based; conditions: for % inhibition of NQNO mutagenicity / Number of revertants per plate, Mean ± SD: BB7, compound 40 ng/mL + NQNO 40 ng/mL; for Number of revertants per plate, Mean ± SD: antimutagenicity, NQNO line = NQNO as a single compound; for chemopreventive (antimutagenic) effect, class: wild BB7 strain, against NQNO
From the text: as §1, §2, §3

Vibrio harveyi BB7 [5] = conditions: BB7, 40 ng/mL; for MI (mutagenicity index): mutagenic if MI above 2.0; for Number of revertants per plate, Mean ± SD: mutagenicity
Method: as §4, §1, §2, §5

Vibrio harveyi BB7M [6] = conditions: 40 ng/mL; for MI (mutagenicity index): mutagenic if MI above 2.0; for Number of revertants per plate, Mean ± SD: mutagenicity
Method: as §4, §1, §2, §5

Vibrio harveyi BB7X [7] = conditions: 40 ng/mL; for MI (mutagenicity index): mutagenic if MI above 2.0; for Number of revertants per plate, Mean ± SD: mutagenicity
Method: as §4, §1, §2, §5

[8] = tested on: Salmonella typhimurium TA100; test: S. typhimurium antimutagenicity assay against NQNO; assay type: cell-based; conditions: for Number of revertants per plate, Mean ± SD: antimutagenicity, NQNO line = NQNO as a single compound
From the text: (§6) In the Ames test, Salmonella typhimurium TA100 strain was used. This strain has a base-pair substitution that can be reverted by mutations at GC pairs. In addition, it contains mutations at uvrB-bio and rfa genes to eliminate excision repair mechanisms and to make the bacteria more permeable to chemicals, respectively. Finally, TA100 also includes pKM101 plasmid, which enhances both chemical and UV-induced mutagenesis via an increase in the error-prone recombinational DNA repair pathway. TA100 strain of S. typhimurium was provided by Dr. T. Nohmi (Division of Genetics and Mutagenesis, National Institute of Hygienic Sciences, Tokyo, Japan). V. harveyi and S. typhimurium bacterial cultures were maintained at 30 and 37 °C, respectively.
as §2, §3

[9] = tested on: Salmonella typhimurium TA100; test: Ames mutagenicity test; assay type: cell-based
Method: From them, 0.2 mM working solutions were prepared by dilution with water. […]
as §6
It causes point mutations at the genome as it induces G:C → A:T transitions in Vibrio harveyi strains and in other bacteria such as Escherichia coli and S. typhimurium. […]
S. typhimurium was cultivated in a fresh medium 12 h prior to a test. To perform mutagenicity assay, 100 μL of an overnight culture (containing approx. 1 × 10^8 to 2 × 10^8 bacteria) were inoculated along with 50 μL of a tested compound in 2 mL of top agar supplemented with traces of histidine and of biotin. Then the mixture was added over the surface of GM agar plates and was left incubating 48 h at 37 °C. Afterwards, the colonies were counted manually.

Vibrio harveyi BB7XM [10] = assay type: cell-based; conditions: compound 40 ng/mL + NQNO 40 ng/mL; for Number of revertants per plate, Mean ± SD: antimutagenicity, NQNO line = NQNO as a single compound
From the text: as §1, §2, §3

Cunninghamella strains = test: Cunninghamella biotransformation assay, three strains together and blank without fungus; assay type: in vitro ADME; conditions: three strains, LC-MS/MS
Method: Three different strains of Cunninghamella were used: Cunninghamella echinulata NRRL 1384, Cunninghamella blakesleeana 1908 DMS, and Cunninghamella elegans 1906 DMS. The first was provided by Dr. A.J. Carnell (University of Liverpool, UK), whereas the two remaining were purchased from Deutsche Sammlung von Mikroorganismen und Zellkulturen GmbH (DMSZ, Braunschweig, Germany).
Cunninghamella strains were cultivated on solid potato dextrose agar (PDA) plates at 28 °C. After 4 days, a liquid fermentation basal medium was prepared by the addition of 6 g of D-glucose, 1.5 g of NaCl, 1.5 g of yeast extract from Saccharomyces cerevisiae, and 1.5 g of K2HPO4 to 300 mL of distilled water. Aliquots of 24.5 mL of medium were inoculated with 300 μL of suspension of fungal spores obtained after wetting colonies in PDA. The fungi were incubated with shaking until the formation of spherical clumps.
Compounds 2–4 were evaluated in this experiment. Once microorganisms formed spherical clumps in the preliminary incubation, the corresponding tested compound was added to the broth and the mixture was incubated for 7 days. Two control experiments were also performed, in the absence of compound and fungus, respectively. Biotransformation progress was monitored by TLC and by liquid chromatography electrospray ionization-tandem mass spectrometry (LC-MS/MS). Monitoring was performed at four different incubation times: 30 min, 3 days, 5 days, and 7 days.
To analyze metabolites in LC-MS/MS, an aliquot of 500 μL of filtered sample was taken and extracted with 500 μL of dichloromethane. The organic fraction was dried with sodium sulfate, filtered, and evaporated. The obtained residue was analyzed in LC-MS/MS. At the end of experiment, all the remaining medium was extracted with 25 mL of dichloromethane after separating the fungal clumps by filtration over cellulose filters.
Agilent 1100 HPLC system (Agilent Technologies, Waldbronn, Germany) equipped with a Xbridge™ C18 analytical column (2.1 × 30 mm, […]; Waters, Dublin, Ireland) was used in the chromatographic separation of LC-MS/MS analysis. […]

[11] = TA100, compound and NQNO 40 ng/mL
[12] = TA100, compound and NQNO 500 ng/mL
[13] = TA100, 40 ng/mL, mutagenic if MI >2.0
[14] = TA100, 500 ng/mL (NQNO control stated as 40 ng/mL in method)

| SMILES | Number of revertants per plate, Mean ± SD (Vibrio harveyi BB7M [1]) | % inhibition of NQNO mutagenicity (Vibrio harveyi BB7M [1]) [%] | MI (mutagenicity index) (Vibrio harveyi BB7XM [2]) | Number of revertants per plate, Mean ± SD (Vibrio harveyi BB7XM [2]) | Number of revertants per plate, Mean ± SD (Vibrio harveyi BB7X [3]) | % inhibition of NQNO mutagenicity (Vibrio harveyi BB7X [3]) [%] | % inhibition of NQNO mutagenicity (Vibrio harveyi BB7 [4]) [%] | Number of revertants per plate, Mean ± SD (Vibrio harveyi BB7 [4]) | chemopreventive (antimutagenic) effect, class (Vibrio harveyi BB7 [4]) | MI (mutagenicity index) (Vibrio harveyi BB7 [5]) | Number of revertants per plate, Mean ± SD (Vibrio harveyi BB7 [5]) | MI (mutagenicity index) (Vibrio harveyi BB7M [6]) | Number of revertants per plate, Mean ± SD (Vibrio harveyi BB7M [6]) | MI (mutagenicity index) (Vibrio harveyi BB7X [7]) | Number of revertants per plate, Mean ± SD (Vibrio harveyi BB7X [7]) | % inhibition of NQNO mutagenicity [8, 11] [%] | % inhibition of NQNO mutagenicity [8, 12] [%] | Number of revertants per plate, Mean ± SD [8, 11] | Number of revertants per plate, Mean ± SD [8, 12] | Number of revertants per plate, Mean ± SD ([9]; TA100, 40 ng/mL) | further results |
| --- | --- | --- | --- | --- | --- | --- | --- | --- | --- | --- | --- | --- | --- | --- | --- | --- | --- | --- | --- | --- | --- |
| COc1nc2c(c(=O)n(C)c(=O)n2C)n1CC(=O)O [Compound 1, 2-(8-methoxy-1,3-dimethyl-2,6-dioxo-purin-7-yl)acetic acid] | 60 ± 10 | 39 | 1.1 | 37 ± 11 | 28 ± 7 | 74 | 20 | 44 ± 6 | moderate or a close to moderate | 0.9 | 12 ± 2 | 1.2 | 33 ± 8 | 1.4 | 30 ± 1 | 88 | 95 | 10 ± 3 | 5 ± 3 | 12 ± 5 | metabolic stability in microsomal biotransformation (in words) (rat liver microsomes): metabolically stable; MI (mutagenicity index) [9, 13]: 0.3; MI (mutagenicity index) [9, 14]: 0.6; Number of revertants per plate, Mean ± SD [9, 14]: 16 ± 3; Number of revertants per plate, Mean ± SD (Vibrio harveyi BB7XM [10]): 69 ± 10; % inhibition of NQNO mutagenicity (Vibrio harveyi BB7XM [10]): 10% |
| COC(=O)Cn1c(OC)nc2c1c(=O)n(C)c(=O)n2C [Compound 2, methyl 2-(8-methoxy-1,3-dimethyl-2,6-dioxo-purin-7-yl)acetate] | 45 ± 10 | 54 | 1.6 | 53 ± 8 | 35 ± 6 | 68 | 38 | 34 ± 7 | moderate or a close to moderate | 1.2 | 15 ± 2 | 1.3 | 36 ± 9 | 1.2 | 27 ± 2 | 92 | 91 | 7 ± 2 | 9 ± 4 | 10 ± 3 | MI (mutagenicity index) [9, 13]: 0.3; MI (mutagenicity index) [9, 14]: 0.5; Number of revertants per plate, Mean ± SD [9, 14]: 14 ± 5; biotransformation / detectable metabolites in Cunninghamella model (in words) (Cunninghamella strains): did not undergo any biotransformation; also recorded: None of the three Cunninghamella strains evaluated generated detectable metabolites; Number of revertants per plate, Mean ± SD (Vibrio harveyi BB7XM [10]): 68 ± 8; % inhibition of NQNO mutagenicity (Vibrio harveyi BB7XM [10]): 12% |
